Each block holds one compound with its values, some of them ahead of it.
How the values were obtained:
[1] = Distribution coefficient, log D of the compound in 1-octanol and PBS buffer at pH 7.4 measured after 30 mins by LC-MS analysis; assay type: physicochemical; conditions: 1-octanol/PBS buffer
[2] = Aqueous thermodynamic solubility of the compound at pH 6.8 measured after 4 hrs by UV-HPLC analysis; assay type: physicochemical; conditions: buffer
[3] = Stability of the compound in mouse liver microsomes assessed as parent compound remaining measured after 0.5 hrs; assay type: ADME, Microsome; conditions: microsomes, 0.5 h
[4] = Toxicity in Crl:CD1(ICR) mouse assessed as effect on central nervous system by measuring NOEL administered as single dose measured up to 24 hrs by Irwin's test; conditions: in vivo
[5] = Stability of the compound in rat liver microsomes assessed as parent compound remaining measured after 0.5 hrs; assay type: ADME, Microsome; conditions: read-out: Stability
[6] = Stability of the compound in dog liver microsomes assessed as parent compound remaining measured after 0.5 hrs; assay type: ADME, Canis lupus familiaris, Microsome; conditions: read-out: Stability
[7] = Stability of the compound in monkey liver microsomes assessed as parent compound remaining measured after 0.5 hrs; assay type: ADME, Macaca mulatta, Microsome; conditions: rhesus monkey, read-out: Stability
[8] = Stability of the compound in human liver microsomes assessed as parent compound remaining measured after 0.5 hrs; assay type: ADME, Microsome; conditions: read-out: Stability
[9] = Cmax in cynomolgus monkey at 1 mg/kg, iv or po by LC-MS/MS analysis; assay type: ADME, organism-based, Macaca fascicularis; conditions: in vivo
[10] = Tmax in cynomolgus monkey at 1 mg/kg, iv or po by LC-MS/MS analysis; assay type: ADME, organism-based, Macaca fascicularis; conditions: in vivo
[11] = Half life in cynomolgus monkey at 1 mg/kg, iv or po by LC-MS/MS analysis; assay type: ADME, organism-based, Macaca fascicularis; conditions: in vivo
[12] = AUC (infinity) in cynomolgus monkey at 1 mg/kg, iv or po by LC-MS/MS analysis; assay type: ADME, organism-based, Macaca fascicularis; conditions: in vivo
[13] = Oral bioavailability in cynomolgus monkey at 1 mg/kg by LC-MS/MS analysis; assay type: ADME, organism-based, Macaca fascicularis; conditions: in vivo
[14] = Clearance in cynomolgus monkey at 1 mg/kg, iv by LC-MS/MS analysis; assay type: ADME, organism-based, Macaca fascicularis; conditions: in vivo
[15] = Volume of distribution at steady state in cynomolgus monkey at 1 mg/kg, iv by LC-MS/MS analysis; assay type: ADME, organism-based, Macaca fascicularis; conditions: in vivo, read-out: Vdss
[16] = Cmax in Beagle dog at 1 mg/kg, iv or po by LC-MS/MS analysis; assay type: ADME, organism-based, Canis lupus familiaris; conditions: in vivo
[17] = Tmax in Beagle dog at 1 mg/kg, iv or po by LC-MS/MS analysis; assay type: ADME, organism-based, Canis lupus familiaris; conditions: in vivo
[18] = Half life in Beagle dog at 1 mg/kg, iv or po by LC-MS/MS analysis; assay type: ADME, organism-based, Canis lupus familiaris; conditions: in vivo
[19] = AUC (infinity) in Beagle dog at 1 mg/kg, iv or po by LC-MS/MS analysis; assay type: ADME, organism-based, Canis lupus familiaris; conditions: in vivo
[20] = Oral bioavailability in Beagle dog at 1 mg/kg by LC-MS/MS analysis; assay type: ADME, organism-based, Canis lupus familiaris; conditions: in vivo
[21] = Clearance in Beagle dog at 1 mg/kg, iv by LC-MS/MS analysis; assay type: ADME, organism-based, Canis lupus familiaris; conditions: in vivo
[22] = Volume of distribution at steady state in Beagle dog at 1 mg/kg, iv by LC-MS/MS analysis; assay type: ADME, organism-based, Canis lupus familiaris; conditions: in vivo, read-out: Vdss
[23] = Cmax in Sprague-Dawley rat at 1 mg/kg, iv or po by LC-MS/MS analysis; assay type: ADME, organism-based; conditions: in vivo
[24] = Tmax in Sprague-Dawley rat at 1 mg/kg, iv or po by LC-MS/MS analysis; assay type: ADME, organism-based; conditions: in vivo
[25] = Half life in Sprague-Dawley rat at 1 mg/kg, iv or po by LC-MS/MS analysis; assay type: ADME, organism-based; conditions: in vivo
[26] = AUC (infinity) in Sprague-Dawley rat at 1 mg/kg, iv or po by LC-MS/MS analysis; assay type: ADME, organism-based; conditions: in vivo
[27] = Oral bioavailability in Sprague-Dawley rat at 1 mg/kg by LC-MS/MS analysis; assay type: ADME, organism-based; conditions: in vivo
[28] = Clearance in Sprague-Dawley rat at 1 mg/kg, iv by LC-MS/MS analysis; assay type: ADME, organism-based; conditions: in vivo
[29] = Volume of distribution at steady state in Sprague-Dawley rat at 1 mg/kg, iv by LC-MS/MS analysis; assay type: ADME, organism-based; conditions: in vivo, read-out: Vdss
[30] = Cmax in ddy mouse at 1 mg/kg, iv or po by LC-MS/MS analysis; assay type: ADME, organism-based; conditions: in vivo
[31] = Tmax in ddy mouse at 1 mg/kg, iv or po by LC-MS/MS analysis; assay type: ADME, organism-based; conditions: in vivo
[32] = Half life in ddy mouse at 1 mg/kg, iv or po by LC-MS/MS analysis; assay type: ADME, organism-based; conditions: in vivo
[33] = AUC (infinity) in ddy mouse at 1 mg/kg, iv or po by LC-MS/MS analysis; assay type: ADME, organism-based; conditions: in vivo
[34] = Oral bioavailability in ddy mouse at 1 mg/kg by LC-MS/MS analysis; assay type: ADME, organism-based; conditions: in vivo
[35] = Clearance in ddy mouse at 1 mg/kg, iv by LC-MS/MS analysis; assay type: ADME, organism-based; conditions: in vivo
[36] = Volume of distribution at steady state in ddy mouse at 1 mg/kg, iv by LC-MS/MS analysis; assay type: ADME, organism-based; conditions: in vivo, read-out: Vdss
[37] = Cmax in ddy mouse at 3 mg/kg, iv or po by LC-MS/MS analysis; assay type: ADME, organism-based; conditions: in vivo
[38] = Tmax in ddy mouse at 3 mg/kg, iv or po by LC-MS/MS analysis; assay type: ADME, organism-based; conditions: in vivo
[39] = Half life in ddy mouse at 3 mg/kg, iv or po by LC-MS/MS analysis; assay type: ADME, organism-based; conditions: in vivo
[40] = AUC (infinity) in ddy mouse at 3 mg/kg, iv or po by LC-MS/MS analysis; assay type: ADME, organism-based; conditions: in vivo
[41] = Oral bioavailability in ddy mouse at 3 mg/kg by LC-MS/MS analysis; assay type: ADME, organism-based; conditions: in vivo
[42] = Clearance in ddy mouse at 3 mg/kg, iv by LC-MS/MS analysis; assay type: ADME, organism-based; conditions: in vivo
[43] = Volume of distribution at steady state in ddy mouse at 3 mg/kg, iv by LC-MS/MS analysis; assay type: ADME, organism-based; conditions: in vivo, read-out: Vdss
[44] = Toxicity in Crl:CD1(ICR) mouse assessed as effect on spontaneous locomotor activity by measuring NOEL administered as single dose measured at 10 mins interval starting from 2 to 3 hrs; conditions: in vivo
[45] = Toxicity in Crl:CD1(ICR) mouse assessed as effect on motor coordination by measuring NOEL administered as single dose measured after 0.5 to 2 hrs by rotarod test; conditions: in vivo
[46] = Toxicity in Crl:CD1(ICR) mouse assessed as effect on respiratory system by measuring NOEL administered as single dose measured after 0.5 to 24 hrs by WBP method; conditions: in vivo
[47] = Toxicity in cynomolgus monkey assessed as effect on cardiovascular system by measuring NOEL administered as single dose measured after 1 to 24 hrs by telemetry; design: species or system Macaca fascicularis; conditions: in vivo
[48] = Chronic toxicity in male Crl:CD1(ICR) mouse assessed as NOAEL administered for 6 months; conditions: in vivo
[49] = Chronic toxicity in female Crl:CD1(ICR) mouse assessed as NOAEL administered for 6 months; conditions: in vivo
[50] = Chronic toxicity in male cynomolgus monkey assessed as NOAEL administered for 9 months; design: species or system Macaca fascicularis; conditions: in vivo
[51] = Chronic toxicity in female cynomolgus monkey assessed as NOAEL administered for 9 months; design: species or system Macaca fascicularis; conditions: in vivo
[52] = Cmax in male Crl:CD1(ICR) mouse at 1000 mg/kg administered for 6 months measured 24 hrs post last dose; assay type: ADME, organism-based; design: dose 1000 mg/kg; conditions: in vivo
[53] = Cmax in female Crl:CD1(ICR) mouse at 1000 mg/kg administered for 6 months measured 24 hrs post last dose with 1 month recovery; assay type: ADME, organism-based; design: dose 1000 mg/kg; conditions: in vivo
[54] = Cmax in male cynomolgus monkey at 1000 mg/kg administered for 9 months measured 24 hrs post last dose with 1 month recovery; assay type: ADME, organism-based, Macaca fascicularis; design: dose 1000 mg/kg; conditions: in vivo
[55] = Cmax in female cynomolgus monkey at 1000 mg/kg administered for 9 months measured 24 hrs post last dose with 1 month recovery; assay type: ADME, organism-based, Macaca fascicularis; design: dose 1000 mg/kg; conditions: in vivo
[56] = Tmax in male Crl:CD1(ICR) mouse at 1000 mg/kg administered for 6 months measured 24 hrs post last dose; assay type: ADME, organism-based; conditions: in vivo
[57] = Tmax in female Crl:CD1(ICR) mouse at 1000 mg/kg administered for 6 months measured 24 hrs post last dose with 1 month recovery; assay type: ADME, organism-based; conditions: in vivo
[58] = Tmax in male cynomolgus monkey at 1000 mg/kg administered for 9 months measured 24 hrs post last dose with 1 month recovery; assay type: ADME, organism-based, Macaca fascicularis; conditions: in vivo
[59] = Tmax in female cynomolgus monkey at 1000 mg/kg administered for 9 months measured 24 hrs post last dose with 1 month recovery; assay type: ADME, organism-based, Macaca fascicularis; conditions: in vivo
[60] = AUC (0 to 24 hrs) in male Crl:CD1(ICR) mouse at 1000 mg/kg administered for 6 months measured 24 hrs post last dose; assay type: ADME, organism-based; design: dose 1000 mg/kg, time < 24 hr; conditions: in vivo
[61] = AUC (0 to 24 hrs) in female Crl:CD1(ICR) mouse at 1000 mg/kg administered for 6 months measured 24 hrs post last dose with 1 month recovery; assay type: ADME, organism-based; design: dose 1000 mg/kg, time < 24 hr; conditions: in vivo
[62] = AUC (0 to 24 hrs) in male cynomolgus monkey at 1000 mg/kg administered for 9 months measured 24 hrs post last dose with 1 month recovery; assay type: ADME, organism-based, Macaca fascicularis; design: time < 24 hr, dose 1000 mg/kg; conditions: in vivo
[63] = AUC (0 to 24 hrs) in female cynomolgus monkey at 1000 mg/kg administered for 9 months measured 24 hrs post last dose with 1 month recovery; assay type: ADME, organism-based, Macaca fascicularis; design: time < 24 hr, dose 1000 mg/kg; conditions: in vivo

- logD at 0.5 h [1]: 0.8
- solubility thermodynamic at 4 h ([2]; pH 6.8, read-out: Therm_solubility): > 2000 µM
- Stability [3]: 70%
SMILES: Cn1nccc1[C@H]1CCCC[C@@H]1Oc1cc(F)c(S(=O)(=O)Nc2ccncn2)cc1Cl (racemic) [DS-1971]

- Therm_solubility ([2]; pH 6.8, 4 h, 4 h): 1500 µM
- Stability [3]: 92%
- remaining at 0.5 h [5]: 94%
- remaining at 0.5 h [6]: 95%
- remaining at 0.5 h [7]: 78%
- remaining at 0.5 h [8]: 66%
- Cmax [9]: 1.57 µM
- Tmax [10]: 0.83 h
- half-life [11]: 3.69 h
- AUC(0-inf) [12]: 2.06 µM·h
- bioavailability [13]: 35%
- clearance [14]: 0.393 L/h/kg
- Vd [15]: 0.15 L/kg
- Cmax [16]: 1.71 µM
- Tmax [17]: 0.5 h
- half-life [18]: 4 h
- AUC(0-inf) [19]: 3.23 µM·h
- bioavailability [20]: 77%
- clearance [21]: 0.522 L/h/kg
- Vd [22]: 0.57 L/kg
- Cmax [23]: 0.103 µM
- Tmax [24]: 0.5 h
- half-life [25]: 0.77 h
- AUC(0-inf) [26]: 0.103 µM·h
- bioavailability [27]: 16%
- clearance [28]: 2.82 L/h/kg
- Vd [29]: 1.2 L/kg
- Cmax [30]: 0.105 µM
- Tmax [31]: 5 min
- half-life [32]: 2.02 h
- AUC(0-inf) [33]: 0.0689 µM·h
- bioavailability [34]: 15%
- clearance [35]: 4.72 L/h/kg
- Vd [36]: 1.37 L/kg
- Cmax [37]: 0.464 µM
- Tmax [38]: 0.25 h
- half-life [39]: 1.54 h
- AUC(0-inf) [40]: 0.277 µM·h
- bioavailability [41]: 11%
- clearance [42]: 2.72 L/h/kg
- Vd [43]: 0.565 L/kg
- Cmax [52]: 9.44 µM
- Cmax [53]: 105 µM
- Cmax [54]: 28.1 µM
- Cmax [55]: 22.5 µM
- Tmax [56]: 0.5 h
- Tmax [57]: 6 h
- Tmax [58]: 1.2 h
- Tmax [59]: 1.2 h
- AUC(0-t) at 24 h [60]: 65.9 µM·h
- AUC(0-t) at 24 h [61]: 1400 µM·h
- AUC(0-t) at 24 h [62]: 146 µM·h
- AUC(0-t) at 24 h [63]: 100 µM·h
SMILES: Cn1nccc1[C@H]1CCCC[C@@H]1Oc1cc(F)c(S(=O)(=O)Nc2ccncn2)cc1Cl [DS-1971]
- NOAEL at 24 h [4]: 1000 mg/kg
- NOAEL [44]: 1000 mg/kg
- NOAEL [45]: 1000 mg/kg
- NOAEL [46]: 1000 mg/kg
- NOAEL [47]: 1000 mg/kg
- NOAEL at 6 months [48]: 1000 mg/kg
- NOAEL at 6 months [49]: 1000 mg/kg
- NOAEL at 9 months [50]: 1000 mg/kg
- NOAEL at 9 months [51]: 1000 mg/kg
